From US12458021B2, “Microbiocidal derivatives” (SYNGENTA CROP PROTECTION AG, priority 2019, dated 2025)

Columns and labels:
[1] = tested on: Blumeria graminis f. sp. tritici (Erysiphe graminis f. sp. tritici); experiment: Blumeria graminis f. sp. tritici / wheat / leaf disc preventative (powdery mildew on wheat); format: in vivo; conditions: foliar, wheat leaf segments cv. Kanzler, inoculated 1 day after application, assessed 6-8 days after application, read-out: control of Blumeria graminis f. sp. tritici (percent disease control compared to untreated)
From the text: Example B4: Blumeria graminis f. sp. tritici (Erysiphe graminis f. sp. tritici)/Wheat/Leaf Disc Preventative (Powdery Mildew on Wheat) Wheat leaf segments cv. Kanzler are placed on agar in a multiwell plate (24-well format) and sprayed with the formulated test compound diluted in water. The leaf disks are inoculated by shaking powdery mildew infected plants above the test plates 1 day after application. […] […]-192.

[2] = tested on: Monographella nivalis (Microdochium nivale); experiment: Monographella nivalis (Microdochium nivale) / liquid culture (foot rot cereals); format: cell-based; conditions: PDB potato dextrose broth, 24° C., 4-5 days after application, read-out: control of Monographella nivalis (inhibition of growth, photometric)
Description: Example B7: Monographella nivalis (Microdochium nivale)/Liquid Culture (Foot Rot Cereals) Conidia of the fungus from cryogenic storage are directly mixed into nutrient broth (PDB potato dextrose broth). After placing a (DMSO) solution of test compound into a microtiter plate (96-well format), the nutrient broth containing the fungal spores is added. The test plates are incubated at 24° C. and the inhibition of growth is determined photometrically 4-5 days after application. […] […]-190.

[3] = tested on: Glomerella lagenarium (Colletotrichum lagenarium); experiment: Glomerella lagenarium (Colletotrichum lagenarium) / liquid culture (anthracnose); format: cell-based; conditions: Colletotrichum orbiculare, PDB potato dextrose broth, 24° C., 3-4 days after application, read-out: control of Glomerella lagenarium (inhibition of growth, photometric)
Description: Example B3: Glomerella lagenarium (Colletotrichum lagenarium)/Liquid Culture (Anthracnose) Conidia of the fungus from cryogenic storage are directly mixed into nutrient broth (PDB potato dextrose broth). After placing a (DMSO) solution of test compound into a microtiter plate (96-well format), the nutrient broth containing the fungal spores is added. The test plates are incubated at 24° C. and the inhibition of growth is measured photometrically 3-4 days after application. […] […]-191.

[4] = tested on: Mycosphaerella graminicola (Septoria tritici); experiment: Mycosphaerella graminicola (Septoria tritici) / liquid culture (Septoria blotch); format: cell-based; conditions: Zymoseptoria tritici, PDB potato dextrose broth, 24° C., 4-5 days after application, read-out: control of Mycosphaerella graminicola (inhibition of growth, photometric)
Description: Example B15: Mycosphaerella graminicola (Septoria tritici)/Liquid Culture (Septoria Blotch) Conidia of the fungus from cryogenic storage are directly mixed into nutrient broth (PDB potato dextrose broth). After placing a (DMSO) solution of test compound into a microtiter plate (96-well format), the nutrient broth containing the fungal spores is added. The test plates are incubated at 24° C. and the inhibition of growth is determined photometrically 4-5 days after application. […] […]-191.

SMILES: COc1ccc(Nc2cc(F)nc(F)c2)nc1C(=O)NCc1nn(C)c2ncccc12 [Compound P-51, 6-[(2,6-difluoro-4-pyridyl)amino]-3-methoxy-N-[(1-methylpyrazolo[3,4-b]pyridin-3-yl)methyl]pyridine-2-carboxamide]
- pest or weed control at 200 ppm [1]: ≥ 80%

SMILES: O=C(NC1CCC12CCCC2)c1nc(Nc2cc(F)nc(F)c2)ccc1O (stereo not shown) [Compound P-3, 6-[(2,6-difluoro-4-pyridyl)amino]-3-hydroxy-N-spiro[3.4]octan-3-yl-pyridine-2-carboxamide]
- inhibition at 20 ppm [2]: ≥ 80%
- inhibition at 20 ppm [3]: ≥ 80%
- inhibition at 20 ppm [4]: ≥ 80%

SMILES: COc1ccc(Nc2cc(F)cc(F)c2)nc1C(=O)NC1CC2(COC2)C1 [Compound P-64, 6-(3,5-difluoroanilino)-3-methoxy-N-(2-oxaspiro[3.3]heptan-6-yl)pyridine-2-carboxamide]
- pest or weed control at 200 ppm [1]: ≥ 80%

SMILES: COc1ccc(Nc2cc(F)nc(F)c2)nc1C(=O)NCc1cncn1Cc1ccccc1 [Compound P-48, N-[(3-benzylimidazol-4-yl)methyl]-6-[(2,6-difluoro-4-pyridyl)amino]-3-methoxy-pyridine-2-carboxamide]
- pest or weed control at 200 ppm [1]: ≥ 80%

SMILES: COc1cnc(Nc2cc(F)cc(F)c2)nc1C(=O)NCCC(C)C [Compound P-8, 2-(3,5-difluoroanilino)-N-isopentyl-5-methoxy-pyrimidine-4-carboxamide]
- inhibition at 20 ppm [2]: ≥ 80%
- inhibition at 20 ppm [3]: ≥ 80%
- inhibition at 20 ppm [4]: ≥ 80%

SMILES: COc1ccc(Nc2cnsc2)nc1C(=O)NC(C)COc1cc(F)cc(F)c1 (stereo not shown) [Compound P-38, N-[2-(3,5-difluorophenoxy)-1-methyl-ethyl]-6-(isothiazol-4-ylamino)-3-methoxy-pyridine-2-carboxamide]
- inhibition at 20 ppm [2]: ≥ 80%
- inhibition at 20 ppm [4]: ≥ 80%

SMILES: COc1ccc(Nc2cncnc2)nc1C(=O)NC(C)(C)C [Compound P-166, N-tert-butyl-3-methoxy-6-(pyrimidin-5-ylamino)pyridine-2-carboxamide]
- pest or weed control at 200 ppm [1]: ≥ 80%

SMILES: COc1ccc(NCC(C)(C)C)nc1C(=O)NCC(C)(C)C [Compound P-43, N-(2,2-dimethylpropyl)-6-(2,2-dimethylpropylamino)-3-methoxy-pyridine-2-carboxamide]
- inhibition at 20 ppm [2]: ≥ 80%
- inhibition at 20 ppm [4]: ≥ 80%

SMILES: COc1ccc(Nc2cnsc2)nc1C(=O)NCCOc1ccc(Cl)cc1Cl [Compound P-39, N-[2-(2,4-dichlorophenoxy)ethyl]-6-(isothiazol-4-ylamino)-3-methoxy-pyridine-2-carboxamide]
- inhibition at 20 ppm [2]: ≥ 80%
- inhibition at 20 ppm [3]: ≥ 80%
- inhibition at 20 ppm [4]: ≥ 80%

SMILES: C#CCOc1ccc(Nc2cc(F)cc(F)c2)nc1C(=O)NC(C)(C)C [Compound P-96, N-tert-butyl-6-(3,5-difluoroanilino)-3-prop-2-ynoxy-pyridine-2-carboxamide]
- inhibition at 20 ppm [2]: ≥ 80%
- inhibition at 20 ppm [4]: ≥ 80%

SMILES: COc1ccc(NCC2CC2)nc1C(=O)NCC(C)(C)C [Compound P-40, 6-(cyclopropylmethylamino)-N-(2,2-dimethylpropyl)-3-methoxy-pyridine-2-carboxamide]
- inhibition at 20 ppm [2]: ≥ 80%
- inhibition at 20 ppm [4]: ≥ 80%

SMILES: CC1(C)CCC1NC(=O)c1nc(Nc2ccnc(F)c2)ccc1O (stereo not shown) [Compound P-18, N-(2,2-dimethylcyclobutyl)-6-[(2-fluoro-4-pyridyl)amino]-3-hydroxy-pyridine-2-carboxamide]
- inhibition at 20 ppm [2]: ≥ 80%
- inhibition at 20 ppm [3]: ≥ 80%
- inhibition at 20 ppm [4]: ≥ 80%

SMILES: COc1ccc(Nc2cc(F)cc(F)c2)nc1C(=O)NCC1(c2ccc(Cl)nc2)CC1 [Compound P-73, N-[[1-(6-chloro-3-pyridyl)cyclopropyl]methyl]-6-(3,5-difluoroanilino)-3-methoxy-pyridine-2-carboxamide]
- inhibition at 20 ppm [2]: ≥ 80%
- inhibition at 20 ppm [3]: ≥ 80%
- inhibition at 20 ppm [4]: ≥ 80%

SMILES: CC1(C)CCC1NC(=O)c1nc(Nc2ccccc2)ccc1O (stereo not shown) [Compound P-16, 6-anilino-N-(2,2-dimethylcyclobutyl)-3-hydroxy-pyridine-2-carboxamide]
- inhibition at 20 ppm [2]: ≥ 80%
- inhibition at 20 ppm [3]: ≥ 80%
- inhibition at 20 ppm [4]: ≥ 80%

SMILES: COc1ccc(Nc2ccc(F)cc2)nc1C(=O)NCC(C)(C)C [Compound P-133, N-(2,2-dimethylpropyl)-6-(4-fluoroanilino)-3-methoxy-pyridine-2-carboxamide]
- inhibition at 20 ppm [2]: ≥ 80%
- inhibition at 20 ppm [3]: ≥ 80%
- inhibition at 20 ppm [4]: ≥ 80%

SMILES: CC1(C)CCC1NC(=O)c1nc(Nc2ccc(F)nc2)ccc1O (stereo not shown) [Compound P-13, N-(2,2-dimethylcyclobutyl)-6-[(6-fluoro-3-pyridyl)amino]-3-hydroxy-pyridine-2-carboxamide]
- inhibition at 20 ppm [2]: ≥ 80%
- inhibition at 20 ppm [3]: ≥ 80%

SMILES: COc1ccc(Nc2cc(F)nc(F)c2)nc1C(=O)NC1(C)CCOC1 (stereo not shown) [Compound P-124, 6-[(2,6-difluoro-4-pyridyl)amino]-3-methoxy-N-(3-methyltetrahydrofuran-3-yl)pyridine-2-carboxamide]
- pest or weed control at 200 ppm [1]: ≥ 80%

SMILES: COc1cnc(Nc2cc(F)nc(F)c2)nc1C(=O)NCCC(C)C [Compound P-9, 2-[(2,6-difluoro-4-pyridyl)amino]-N-isopentyl-5-methoxy-pyrimidine-4-carboxamide]
- pest or weed control at 200 ppm [1]: ≥ 80%

SMILES: CCON=C(CNC(=O)c1nc(Nc2cc(F)cc(F)c2)ccc1OC)c1ncc(Cl)cc1Cl [Compound P-75, N-[2-(3,5-dichloro-2-pyridyl)-2-ethoxyimino-ethyl]-6-(3,5-difluoroanilino)-3-methoxy-pyridine-2-carboxamide]
- inhibition at 20 ppm [2]: ≥ 80%
- inhibition at 20 ppm [3]: ≥ 80%
- inhibition at 20 ppm [4]: ≥ 80%

SMILES: COc1ccc(Nc2cc(F)nc(F)c2)nc1C(=O)NCC1(C)CCOC1 (stereo not shown) [Compound P-53, 6-[(2,6-difluoro-4-pyridyl)amino]-3-methoxy-N-[(3-methyltetrahydrofuran-3-yl)methyl]pyridine-2-carboxamide]
- pest or weed control at 200 ppm [1]: ≥ 80%

SMILES: COc1ccc(Nc2cc(F)nc(F)c2)nc1C(=O)NC1C2CCOC2C1(C)C (stereo not shown) [Compound P-54, 6-[(2,6-difluoro-4-pyridyl)amino]-N-(7,7-dimethyl-2-oxabicyclo[3.2.0]heptan-6-yl)-3-methoxy-pyridine-2-carboxamide]
- pest or weed control at 200 ppm [1]: ≥ 80%

SMILES: COc1cnc(Nc2cc(F)nc(F)c2)nc1C(=O)NC1CCC1(C)C (stereo not shown) [Compound P-11, 2-[(2,6-difluoro-4-pyridyl)amino]-N-(2,2-dimethylcyclobutyl)-5-methoxy-pyrimidine-4-carboxamide]
- pest or weed control at 200 ppm [1]: ≥ 80%

SMILES: COc1ccc(Nc2cccc(C)c2)nc1C(=O)NCC(C)(C)C [Compound P-140, N-(2,2-dimethylpropyl)-3-methoxy-6-(3-methylanilino)pyridine-2-carboxamide]
- inhibition at 20 ppm [2]: ≥ 80%
- inhibition at 20 ppm [3]: ≥ 80%
- inhibition at 20 ppm [4]: ≥ 80%

SMILES: COc1ccc(Nc2cnsc2)nc1C(=O)NCc1ccc(Cl)cc1 [Compound P-37, N-[(4-chlorophenyl)methyl]-6-(isothiazol-4-ylamino)-3-methoxy-pyridine-2-carboxamide]
- inhibition at 20 ppm [2]: ≥ 80%
- inhibition at 20 ppm [3]: ≥ 80%
- inhibition at 20 ppm [4]: ≥ 80%

SMILES: CC1(C)CCC1NC(=O)c1nc(Nc2cc(F)cc(F)c2)ccc1O (stereo not shown) [Compound P-2, 6-(3,5-difluoroanilino)-N-(2,2-dimethylcyclobutyl)-3-hydroxy-pyridine-2-carboxamide]
- inhibition at 20 ppm [2]: ≥ 80%
- inhibition at 20 ppm [3]: ≥ 80%
- inhibition at 20 ppm [4]: ≥ 80%
